According to PubChem BioAssay (NCI):
“And” between values parts separate entries of the source, which are not always exact repeats. Equal entries are not always repeated.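 Where inhibition never reached the appropriate level, the endpoint shown equals the highest concentration tested. Otherwise, values were interpolated linearly from a five-concentration, 48-hour dose response in 96-well plates. The concentration for 50% growth inhibition is given as GI50. Definition used: TGI = concentration required for complete inhibition of growth.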

Key:
Experiment in all cases: DTP human tumour cell line panel, 48 h
786-0 renal = system: 786-0 renal
UACC-257 melanoma = system: UACC-257 melanoma
SK-MEL-28 melanoma = system: SK-MEL-28 melanoma
EKVX NSCLC = system: EKVX NSCLC
TK-10 renal = system: TK-10 renal
MALME-3M melanoma = system: MALME-3M melanoma
OVCAR-8 ovarian = system: OVCAR-8 ovarian
UACC-62 melanoma = system: UACC-62 melanoma
MOLT-4 leukemia = system: MOLT-4 leukemia

Row | SMILES | TGI (786-0 renal) | TGI (UACC-257 melanoma) | TGI (SK-MEL-28 melanoma) | TGI (EKVX NSCLC) | TGI (TK-10 renal) | TGI (MALME-3M melanoma) | TGI (OVCAR-8 ovarian) | TGI (UACC-62 melanoma) | TGI (MOLT-4 leukemia) | GI50 (UACC-257 melanoma) | GI50 (SK-MEL-28 melanoma) | GI50 (EKVX NSCLC) | GI50 (MALME-3M melanoma) | GI50 (OVCAR-8 ovarian) | GI50 (UACC-62 melanoma) | GI50 (MOLT-4 leukemia) | GI50 (786-0 renal)
1 | O=[P+](O)c1ccccn1 | > 100 µM | > 100 µM | > 100 µM | > 100 µM | > 100 µM | > 100 µM | > 100 µM | > 100 µM | > 100 µM | – | – | – | – | – | – | – | –
2 | C[C@H]1C/C=C/[C@H]2[C@@H]3O[C@]3(C)[C@@H](C)[C@H]3[C@H](Cc4ccccc4)NC(=O)[C@]32OC(=O)O/C=C/[C@@](C)(O)C1=O | 63.5 µM | 29.9 µM and 24.1 µM and 49.8 µM | – | – | – | 2.91 µM and 3.5 µM and 0.877 µM | 89.7 µM and 125 µM and > 250 µM | – | – | 0.127 µM and 0.0594 µM | 0.0204 µM and 0.047 µM | 0.065 µM and 0.121 µM | 0.0212 µM | 15 µM | 0.0652 µM and 0.025 µM | 0.289 µM and 0.052 µM | –
3 | C1OC1CN1CCN(CC2CO2)CC1 (centres undefined) | > 100 µM | > 100 µM | > 100 µM | > 100 µM | > 100 µM | > 100 µM | > 100 µM | > 68.5 µM | > 62.4 µM | – | – | – | – | – | – | – | –
4 | Nc1c(C(=O)Nc2ccccn2)sc2nc3c(cc12)C(O)CCC3 (centres undefined) | > 50 µM | > 50 µM | > 50 µM | > 50 µM | – | > 50 µM | > 50 µM | > 50 µM | > 50 µM | > 50 µM | > 50 µM | 3.29 µM | 19.3 µM | 2.19 µM | 1.75 µM | 2.08 µM | 1.95 µM
5 | CCOC(=O)C(=O)Nc1cc(Cl)c(Cl)cc1Cl | > 100 µM | > 100 µM | > 100 µM | > 100 µM | > 100 µM | > 100 µM | > 100 µM | > 100 µM | > 100 µM | – | – | – | – | – | – | – | –
6 | CCOC(=O)C1C=C2O[C@@H]3OC4(CCCCC4)O[C@@H]3C2C2C(=O)CCC(=O)[C@@]12C(=O)OC (some centres undefined) | > 100 µM | > 100 µM | > 100 µM | > 100 µM | – | > 100 µM | > 100 µM | > 100 µM | > 100 µM | – | – | – | – | – | – | – | –
7 | O=c1c2cc(Br)cc(Br)c2nc(CCCl)n1-c1ccc(O)c([N+](=O)[O-])c1 | 32.4 µM | 29.4 µM | 35.4 µM | 75.8 µM | 32.7 µM | 36.4 µM | 41.6 µM | 47.3 µM | 50.5 µM | – | – | – | – | – | – | – | –
8 | Cc1cccc(C)c1NC(=O)CCc1nnc2s/c(=C\c3ccc(N(C)C)cc3)c(=O)n12 | > 100 µM | > 100 µM | > 100 µM | – | > 100 µM | > 100 µM | > 100 µM | > 100 µM | > 100 µM | – | – | – | – | – | – | – | –
9 | CCCCC(C)/C=C/C(=O)C1=C(O)/C(=C/C(=O)O)OC1=O (centres undefined) | > 100 µM | > 100 µM | > 100 µM | > 100 µM | > 100 µM | > 100 µM | > 100 µM | > 100 µM | > 100 µM | – | – | – | – | – | – | – | –
10 | C[P+](C)(C)C | > 100 µM | > 100 µM | > 100 µM | > 100 µM | > 100 µM | > 100 µM | > 100 µM | > 100 µM | > 100 µM | – | – | – | – | – | – | – | –
11 | Nc1ccc(-c2cc(C(=O)Nc3nccs3)[nH]c(=S)n2)cc1 | > 100 µM | > 100 µM | > 100 µM | > 100 µM | > 100 µM | > 100 µM | > 100 µM | > 100 µM | > 100 µM | – | – | – | – | – | – | – | –
12 | S=c1o[nH]c(-c2ccccc2)c1C=Nc1ccccc1 | > 100 µM | > 100 µM | > 100 µM | > 100 µM | > 100 µM | > 100 µM | > 100 µM | > 100 µM | > 100 µM | – | – | – | – | – | – | – | –
13 | CC1(C)CCCC2(C)C3C(O)CC2(C)C(O)C31 (centres undefined) | 0.156 µM | > 100 µM | > 100 µM | > 100 µM | > 100 µM | > 100 µM | > 100 µM | > 100 µM | > 100 µM | – | – | – | – | – | – | – | –
14 | CCc1cccc(C(C)C)c1NC(=O)CCl | > 100 µM | > 100 µM | > 100 µM | > 100 µM | > 100 µM | > 100 µM | – | > 100 µM | > 100 µM | – | – | – | – | – | – | – | –
15 | Cc1ccccc1NC(=O)/C=N/O | > 100 µM | > 100 µM | > 100 µM | 39.6 µM | > 100 µM | > 100 µM | > 100 µM | 27.9 µM | > 100 µM | – | – | – | – | – | – | – | –
16 | O=C1/C(=C/c2ccc3c(c2)OCCO3)CCC/C1=C\c1ccc2c(c1)OCCO2 | > 100 µM | 59.7 µM | 77.2 µM | > 100 µM | > 100 µM | > 100 µM | 30.6 µM | 61.3 µM | > 100 µM | – | – | – | – | – | – | – | –
17 | Cc1cccc(C)c1NC(=O)CCC/C(CC(=O)c1ccc(F)cc1)=N\NC(=O)C(=O)NN | > 100 µM | > 100 µM | > 100 µM | > 100 µM | > 100 µM | > 100 µM | > 100 µM | > 100 µM | > 100 µM | – | – | – | – | – | – | – | –
